Test results taken from publication PMC8839821, “Potential Mechanisms Involved in the Protective Effect of Dicaffeoylquinic Acids from Artemisia annua L. Leaves against Diabetes and Its Complications” (Molecules, 2022).

How the values were obtained:
[1] = biological target: T1, Dipeptidyl Peptidase IV (DPPIV) enzyme (Homo sapiens, UniProt P27487); test: Dipeptidyl peptidase IV (DPPIV) inhibition assay (fluorometric inhibitor screening kit); assay type: biochemical; conditions: mean ± SEM of two replicates; read-out: DPPIV inhibitory activity IC50 (converted)
T1 construct: purchased Abnova
Protocol: The dipeptidyl peptidase IV (DPPIV) inhibition effectiveness of the polar fraction of Artemisia annua (ART-CQ) and the isolated compounds was determined fluorometrically by using the DPPIV Inhibitor Screening Kit (Abnova, Taipei, Taiwan) following the manufacturer’s protocol. […] Then the enzyme substrate solution was added, and the […] was measured at Ex/Em = 360/460 nm. The plate was reincubated for 30 min at 37 °C and the […] was recorded again. Vidagliptin was used as the reference standard. The difference between the two readings was estimated and the IC50 was determined.

α-glucosidase = test: α-Glucosidase inhibition assay (inhibitor screening kit); assay type: biochemical; conditions: mean ± SEM of two replicates
Protocol: The in vitro α-glucosidase inhibitory potential of ART-CQ and its isolated compounds was evaluated using the α-Glucosidase Inhibitor Screening Kit (Biovision, Milpitas, CA, USA). […] After incubation, 20 µL of the α-Glucosidase Substrate in buffer was added and the absorbance was measured kinetically at 410 nm for 60 min. The polar fraction was tested in concentrations (10, 50, 100, 200 µg/mL) while the concentrations of the isolated compounds were (5, 20, 50, 100 µg/mL).
The change in absorbance is directly proportional to enzyme activity and the presence of enzyme inhibitor reduces the formation of the end product with the resultant decrease in absorbance.

α-amylase enzyme = biological target: T2, α-amylase enzyme (Sus scrofa, UniProt P00690); test: α-Amylase inhibition assay (CNPG3 hydrolysis, kinetic); assay type: biochemical, porcine pancreas
T2 construct: Alpha-amylase (porcine pancreas); purchased Sigma-Aldrich; host or cells: porcine pancreas
T2 sequence (P00690 16-511): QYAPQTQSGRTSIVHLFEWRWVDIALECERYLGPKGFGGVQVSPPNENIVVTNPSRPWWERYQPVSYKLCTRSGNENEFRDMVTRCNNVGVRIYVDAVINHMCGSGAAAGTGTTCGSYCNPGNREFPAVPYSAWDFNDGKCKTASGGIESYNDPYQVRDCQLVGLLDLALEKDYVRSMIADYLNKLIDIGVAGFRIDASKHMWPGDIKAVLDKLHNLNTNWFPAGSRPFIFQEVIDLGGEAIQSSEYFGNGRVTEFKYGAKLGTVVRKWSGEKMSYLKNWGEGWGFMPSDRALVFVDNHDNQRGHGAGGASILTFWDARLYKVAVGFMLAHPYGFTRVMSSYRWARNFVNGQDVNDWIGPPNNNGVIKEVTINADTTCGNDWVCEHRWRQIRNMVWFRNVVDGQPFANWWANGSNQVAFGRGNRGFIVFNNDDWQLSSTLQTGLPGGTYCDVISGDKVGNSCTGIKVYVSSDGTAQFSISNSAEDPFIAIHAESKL
Protocol: Alpha-amylase (porcine pancreas), 2-chloro-4-nitrophenyl-D-maltotrioside (CNPG3) and tetramethylsilane were from Sigma-Aldrich (St. Louis, MO, USA) while the remaining chemicals were from UFC Biotechnology. Spectrophotometric readings were performed using the microplate reader (Anthos Zenyth 200RT, Cambridge, UK). ^1H-NMR (400 MHz) analysis was carried out using Bruker NMR Spectrometer (Bruker, Yokohama, Japan). Spectra were recorded in CD3OD or DMSO-d6 with tetramethylsilane being employed as an internal standard, and chemical shift values were expressed in ppm.
The inhibitory effect of the polar fraction (ART-CQ) and isolated compounds from Artemisia Annua on the activity of α-amylase enzyme was assessed kinetically as previously described. […] The change in absorbance per min is proportional to the enzyme activity. Various concentrations of ART-CQ (10, 50, 100, 200 µg/mL) and isolated compounds (5, 20, 50, 100 µg/mL) were preincubated with the enzyme for 15 min at 37 °C before the addition of CNPG3.

[2] = DPPH radical scavenging assay; conditions: mean ± SEM of two replicates
Protocol: 2,2-diphenyl-1-picrylhydrazil (DPPH) Radical Scavenging Assay was exploited to assess the free radical scavenging potential of ART-CQ and the pure compounds according to Motaal et al., 2011 [52]. Different concentrations of ART-CQ (8, 16, 48, 64 µg/mL) and the isolated compounds (2, 4, 12, 16 µg/mL) were used. Ascorbic acid was used as the standard positive control and water was used in place of samples as a blank. The IC50 value for the test samples and standard was evaluated.

[3] = Ferric Reducing Antioxidant Power (FRAP) assay; conditions: ART-CQ 50 µg/mL, isolated compounds 25 µg/mL
Protocol: The DetectX® Ferric Reducing Antioxidant Power (FRAP™) Detection Kit (Arbor assays, Ann Arbor, MI, USA) was used to estimate the antioxidant and ferric reducing activity of the polar fraction of A. annua and the isolated compounds in accordance with the method of Benzie and Strain (1996). ART-CQ was utilized in a concentration of (50 µg/mL) while the isolated compounds were used in a concentration of (25 µg/mL). Ferric chloride standard and ascorbic acid control were used in the assay and the FRAP values were estimated and presented as µM FeCl2.

[4] = system: human skin fibroblast (HSF) cells; test: In vitro cell viability / cytotoxicity (SRB assay); assay type: cell-based; conditions: 72 h incubation, highest tested concentration 100 µg/mL
Protocol: (§1) Human Skin Fibroblasts (HSF) cell line was obtained from Nawah Scientific Inc. (Mokatam, Cairo, Egypt). Cells were kept in DMEM media with […] of streptomycin, 100 units/mL of penicillin and 10% of heat-inactivated fetal bovine serum in humidified, 5% (v/v) CO2 atmosphere at 37 °C.
Effect of the alcoholic extract and the isolated compounds on cell viability was evaluated to assess their safety utilizing SRB assay. An aliquot of 100 µL cell suspension (5 × 10^3 cells) was incubated with 100 μL media containing the test samples at concentrations (0.01, 0.1, 1, 10, 100 µg/mL) for 72 h. Media was removed and 150 μL of 10% TCA was added for fixing the cells that was further incubated at 4 °C for 1h. Cells were then washed with distilled water and 70 μL 0.4% SRB solution was added, and plates were placed in dark for 10 min. Plates were then washed with 1% acetic acid and left to dry overnight. 150 μL of 10 mM TRIS was then added and the absorbance was measured at 540 nm using a BMG LABTECH®-FLUOstar Omega microplate reader (Ortenberg, Germany). Experiments were done in triplicates and the IC50 was calculated.

[5] = system: human skin fibroblast (HSF) cells; test: Scratch wound healing assay; assay type: cell-based; conditions: for effect on scratch wound healing (in words): tested at 10, 100, 1000 µg/mL; for time to complete wound healing: control healed in 72 h
Protocol: as §1
The wound healing assay was conducted to evaluate the effect of different concentrations of the polar fraction and isolated compounds from Artemisia Annua on the migration ability of HSF cell line using the scratch wound healing assay as previously described. In a coated 12-well plates, cells were seeded at density of 2 × 10^5/well in 5% FBS-DMEM and cultured overnight at 37 °C and 5% CO2. On the following day, horizontal scratches were made into the confluent monolayer and the plates were washed with PBS and treated with fresh media containing the combined polar extract and the isolated compounds in concentrations of 10, 100, 1000 µg/mL. Control wells were done using only plain medium. The plates were incubated at 37 °C and 5% CO2 and images were captured using an inverted microscope at 24, 48 and 72 h time intervals. The acquired images were analyzed by MII ImageView software version 3.7. Experiments were performed in triplicates. Wound width was calculated as the average distance between the edges of the scratches. As cell migration enhanced, the wound width diminishes.

aldose reductase enzyme = aldose reductase enzyme (Homo sapiens, UniProt P15121); test: Aldose reductase inhibition assay (NADPH decrease at 340 nm, screening kit)
Protocol: Aldose reductase inhibitory activity was determined kinetically by measuring the decrease in the absorption of NADPH at 340 nm in a reaction mixture containing, in addition to NADPH, the enzyme, DL-glyceraldehyde and the samples [50]. This was accomplished using the Aldose Reductase Inhibitor Screening Kit (Biovision, Milpitas, CA, USA), in accordance with the manufacturer’s instructions. […] Then 60 μL of NADPH and 90 μL of enzyme solution were added and the plate was incubated in dark for 20 min at 37 °C. Subsequently, 40 μL of DL-glyceraldehyde was pipetted and the absorbance was determined at 340 nm at 37 °C for 90 min.

T1 sequence (P27487 whole entry, species assumed): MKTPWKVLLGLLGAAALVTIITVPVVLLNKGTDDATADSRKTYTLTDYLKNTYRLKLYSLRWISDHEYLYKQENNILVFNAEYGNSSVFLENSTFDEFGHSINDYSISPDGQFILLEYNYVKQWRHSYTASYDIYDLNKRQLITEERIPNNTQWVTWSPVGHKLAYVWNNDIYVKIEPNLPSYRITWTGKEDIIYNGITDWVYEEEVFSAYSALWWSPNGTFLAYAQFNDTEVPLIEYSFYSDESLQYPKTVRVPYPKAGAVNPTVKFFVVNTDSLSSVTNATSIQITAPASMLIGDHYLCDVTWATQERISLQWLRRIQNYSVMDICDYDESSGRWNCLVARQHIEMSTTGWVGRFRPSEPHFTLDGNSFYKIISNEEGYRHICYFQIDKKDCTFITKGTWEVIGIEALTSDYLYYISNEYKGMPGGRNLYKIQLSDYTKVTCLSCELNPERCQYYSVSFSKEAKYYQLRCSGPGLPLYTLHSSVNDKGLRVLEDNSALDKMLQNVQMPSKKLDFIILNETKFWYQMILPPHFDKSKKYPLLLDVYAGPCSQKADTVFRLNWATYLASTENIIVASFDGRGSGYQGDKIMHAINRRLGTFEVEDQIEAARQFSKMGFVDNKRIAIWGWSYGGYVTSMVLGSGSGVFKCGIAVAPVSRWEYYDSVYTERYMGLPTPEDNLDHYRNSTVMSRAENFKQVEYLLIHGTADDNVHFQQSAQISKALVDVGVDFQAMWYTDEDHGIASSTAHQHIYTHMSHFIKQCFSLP

| Compound | IC50 [1] | α-glucosidase inhibitory activity IC50 (α-glucosidase) | α-amylase inhibitory effect (in words) (α-amylase enzyme) | DPPH free radical scavenging, concentration for 50% scavenging (IC50) [2] | FRAP value relative to that of ascorbic acid [3] | IC50 [4] | effect on scratch wound healing (in words) [5] | wound width as % of the original wound width at 24 h ([5]; 10 µg/mL, 24 h, control 56%) | time to complete wound healing ([5]; 10 µg/mL) | IC50 (α-amylase enzyme; mean ± SEM of two replicates) | wound width as % of the original wound width at 48 h ([5]; 10 µg/mL, 48 h, control 37%) | IC50 (aldose reductase enzyme) |
| --- | --- | --- | --- | --- | --- | --- | --- | --- | --- | --- | --- | --- |
| O=C(C=Cc1ccc(O)c(O)c1)OC1CC(O)(C(=O)O)CC(OC(=O)C=Cc2ccc(O)c(O)c2)C1O (stereo not drawn) [Compound 1, 3,5-dicaffeoylquinic acid] | 0.436 µM | 157.13 ± 6.82 µg/mL | no α-amylase inhibitory effect | 30.94 ± 4.61 µg/mL | about 8 times that of the ascorbic acid | > 100 µg/mL | inhibited cell migration and wound healing |  |  |  |  |  |
| O=C(C=Cc1ccc(O)c(O)c1)OC1CC(O)(C(=O)O)CC(O)C1OC(=O)C=Cc1ccc(O)c(O)c1 (stereo not drawn) [Compound 2, 4,5-dicaffeoylquinic acid] | 4.4 µM |  |  | 14.94 ± 0.60 µg/mL |  | > 100 µg/mL | improved the wound healing | 40% | 48 h |  |  |  |
| COC(=O)C1(O)CC(O)C(OC(=O)C=Cc2ccc(O)c(O)c2)C(OC(=O)C=Cc2ccc(O)c(O)c2)C1 (stereo not drawn) [Compound 3, 3,4-dicaffeoylquinic acid methyl ester] | 1.08 µM | 250.42 ± 8.44 µg/mL |  | 7.78 ± 0.24 µg/mL | more than 30 times that of the ascorbic acid | > 100 µg/mL | improved the wound healing |  | 72 h | 2.85 µM | 23% | 16.8 µM |
| O=C1O[C@H]([C@@H](O)CO)C(O)=C1O [ascorbic acid, reference compound] |  |  |  | 5.50 ± 0.30 µg/mL |  |  |  |  |  |  |  |  |
